What was measured:
[1] = solubility of cyanidin in water; type: physicochemical
[2] = stability of cyanidin in solution; type: physicochemical

Which solubility [1] does the source give for Oc1cc(O)c2cc(O)c(-c3ccc(O)c(O)c3)[o+]c2c1 [cyanidin] here?
Its solubility is 49 µg/mL.

And the stability in water ([2]; in water at 49 mg/L)?
Its stability in water is “degrade within minutes”.

And the “pH of highest stability” value ([2]; pH of the solution)?
Its value is less than 5.0.

From patent US20240191273A1, “ANTHOCYANIN BIOPRODUCTION IN A CELL-FREE MANUFACTURING SYSTEM” (DEBUT BIOTECHNOLOGY, INC., priority 2021, published 2024)
